Target: T1, Tyrosine-protein phosphatase non-receptor type 1 [1-298] (Homo sapiens, UniProt P18031)
T1 construct: 1-298
T1 sequence (P18031 whole entry): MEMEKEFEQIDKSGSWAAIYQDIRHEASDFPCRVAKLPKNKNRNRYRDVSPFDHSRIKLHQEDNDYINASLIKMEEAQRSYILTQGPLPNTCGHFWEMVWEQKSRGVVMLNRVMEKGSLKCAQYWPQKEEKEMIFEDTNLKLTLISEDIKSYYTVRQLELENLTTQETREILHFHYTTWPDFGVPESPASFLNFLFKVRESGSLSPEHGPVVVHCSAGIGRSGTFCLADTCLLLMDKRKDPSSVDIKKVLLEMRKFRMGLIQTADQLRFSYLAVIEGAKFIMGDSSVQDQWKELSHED
Assay: Phosphatase Inhibition Assay
Settings: pH 7; 22 °C

An IC50 of 3 µM was found for `CC(=O)N[C@@H](Cc1ccccc1)C(=O)N[C@@H](Cc1ccc(C2=CC(=O)NS2(=O)=O)cc1)C(N)=O` [(2S)-N-[(1S)-1-carbamoyl-2-[4-(1,1,3-trioxo-2,3-dihydro-1,2-thiazol-5-yl)phenyl]ethyl]-2-acetamido-3-phenylpropanamide] in this work.

An IC50 of 16 µM was found for `CC(=O)N[C@@H](Cc1ccccc1)C(=O)N[C@@H](Cc1ccc([C@H]2CC(=O)NS2(=O)=O)cc1)C(N)=O` [(2S)-N-[(1S)-1-carbamoyl-2-{4-[(5R)-1,1,3-trioxo-1,2-thiazolidin-5-yl]phenyl}ethyl]-2-acetamido-3-phenylpropanamide] in this work.

From BindingDB's records for doi:10.1074/jbc.M606873200 (Incyte, 2006)
